Measured values: ChEMBL document CHEMBL3991601, “The target landscape of clinical kinase drugs” (Science, 2017)
pKd: −log10 of the molar value. Activity calls are given as the source filed them. For most assays here, no stated cut-off is given here; in the data, actives have a measured Kd and inactives only a lower limit.

Tests used:
Aurora kinase B = Aurora kinase B (Homo sapiens, UniProt Q96GD4)
[1] = molecular target: T1, Breakpoint cluster region protein (Homo sapiens, UniProt P11274)
T1 sequence (P11274 whole entry): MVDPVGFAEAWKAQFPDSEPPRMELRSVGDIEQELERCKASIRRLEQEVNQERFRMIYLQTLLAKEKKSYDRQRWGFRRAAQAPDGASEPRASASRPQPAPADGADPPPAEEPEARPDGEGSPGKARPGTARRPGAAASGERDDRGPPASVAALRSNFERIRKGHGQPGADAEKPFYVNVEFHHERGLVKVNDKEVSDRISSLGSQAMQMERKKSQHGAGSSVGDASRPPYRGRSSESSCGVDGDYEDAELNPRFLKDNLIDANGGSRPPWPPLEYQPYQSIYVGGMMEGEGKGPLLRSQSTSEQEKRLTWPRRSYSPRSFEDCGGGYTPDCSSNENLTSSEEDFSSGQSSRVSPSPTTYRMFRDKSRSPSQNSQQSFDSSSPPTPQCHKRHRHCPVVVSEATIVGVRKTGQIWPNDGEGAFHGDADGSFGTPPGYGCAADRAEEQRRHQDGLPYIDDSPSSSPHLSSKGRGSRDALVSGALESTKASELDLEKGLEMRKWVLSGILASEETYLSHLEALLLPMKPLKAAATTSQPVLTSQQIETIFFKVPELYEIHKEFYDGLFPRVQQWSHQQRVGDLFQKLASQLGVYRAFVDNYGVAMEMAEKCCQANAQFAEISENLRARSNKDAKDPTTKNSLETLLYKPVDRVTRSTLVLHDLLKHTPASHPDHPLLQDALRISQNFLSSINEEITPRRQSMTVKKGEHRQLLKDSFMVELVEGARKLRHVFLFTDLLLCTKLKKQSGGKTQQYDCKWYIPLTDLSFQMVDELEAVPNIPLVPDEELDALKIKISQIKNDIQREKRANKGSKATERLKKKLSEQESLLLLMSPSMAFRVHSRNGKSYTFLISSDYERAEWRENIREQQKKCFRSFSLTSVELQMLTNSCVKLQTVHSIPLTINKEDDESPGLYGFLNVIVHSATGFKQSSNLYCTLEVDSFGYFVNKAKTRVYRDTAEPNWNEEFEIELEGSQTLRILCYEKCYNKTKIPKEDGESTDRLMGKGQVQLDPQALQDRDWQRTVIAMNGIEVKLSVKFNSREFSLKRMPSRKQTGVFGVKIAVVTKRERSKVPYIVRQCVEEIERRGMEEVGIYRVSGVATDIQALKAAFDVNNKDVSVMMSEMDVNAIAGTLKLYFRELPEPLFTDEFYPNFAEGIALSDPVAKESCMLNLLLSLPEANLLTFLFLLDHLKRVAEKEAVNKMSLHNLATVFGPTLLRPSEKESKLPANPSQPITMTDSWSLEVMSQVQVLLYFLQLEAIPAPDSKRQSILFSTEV

[2] = molecular target: T2, Mitogen-activated protein kinase kinase kinase 5 (Homo sapiens, UniProt Q99683)
T2 sequence (Q99683 whole entry): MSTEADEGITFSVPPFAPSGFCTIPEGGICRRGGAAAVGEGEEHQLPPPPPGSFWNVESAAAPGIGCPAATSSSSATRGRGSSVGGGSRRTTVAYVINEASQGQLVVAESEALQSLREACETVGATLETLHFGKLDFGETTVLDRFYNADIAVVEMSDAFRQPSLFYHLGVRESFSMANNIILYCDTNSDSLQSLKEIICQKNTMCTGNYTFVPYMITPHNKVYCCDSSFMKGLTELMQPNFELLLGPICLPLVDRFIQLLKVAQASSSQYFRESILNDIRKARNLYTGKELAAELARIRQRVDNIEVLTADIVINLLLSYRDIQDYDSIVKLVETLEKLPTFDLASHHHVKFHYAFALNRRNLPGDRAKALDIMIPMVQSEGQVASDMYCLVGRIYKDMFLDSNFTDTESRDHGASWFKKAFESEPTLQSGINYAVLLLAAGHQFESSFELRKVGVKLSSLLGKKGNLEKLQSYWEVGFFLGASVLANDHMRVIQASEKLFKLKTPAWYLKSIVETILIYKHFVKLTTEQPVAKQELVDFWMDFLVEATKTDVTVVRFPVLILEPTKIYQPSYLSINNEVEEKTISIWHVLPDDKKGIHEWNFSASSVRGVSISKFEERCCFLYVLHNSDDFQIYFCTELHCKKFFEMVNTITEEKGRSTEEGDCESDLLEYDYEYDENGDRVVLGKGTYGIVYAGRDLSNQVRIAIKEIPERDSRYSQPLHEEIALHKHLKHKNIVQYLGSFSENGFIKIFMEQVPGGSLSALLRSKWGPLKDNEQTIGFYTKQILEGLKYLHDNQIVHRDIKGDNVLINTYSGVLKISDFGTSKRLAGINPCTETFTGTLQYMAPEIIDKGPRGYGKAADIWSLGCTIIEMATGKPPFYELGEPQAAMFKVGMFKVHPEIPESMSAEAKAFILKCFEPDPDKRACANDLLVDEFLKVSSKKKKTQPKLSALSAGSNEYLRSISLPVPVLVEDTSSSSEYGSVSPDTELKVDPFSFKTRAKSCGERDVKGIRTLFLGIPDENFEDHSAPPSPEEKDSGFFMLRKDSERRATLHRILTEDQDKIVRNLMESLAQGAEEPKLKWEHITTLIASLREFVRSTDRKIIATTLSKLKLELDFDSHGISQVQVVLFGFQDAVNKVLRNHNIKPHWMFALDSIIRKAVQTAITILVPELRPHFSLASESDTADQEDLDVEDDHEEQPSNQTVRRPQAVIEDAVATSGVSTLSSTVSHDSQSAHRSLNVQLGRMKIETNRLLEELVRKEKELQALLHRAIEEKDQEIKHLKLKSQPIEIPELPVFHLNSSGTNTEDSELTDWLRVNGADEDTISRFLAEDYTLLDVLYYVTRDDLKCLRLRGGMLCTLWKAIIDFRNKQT

[3] = molecular target: Mitogen-activated protein kinase kinase kinase kinase 1 (Homo sapiens, UniProt Q92918)
Mitogen-activated protein kinase kinase kinase kinase 1, sequence (Q92918 whole entry): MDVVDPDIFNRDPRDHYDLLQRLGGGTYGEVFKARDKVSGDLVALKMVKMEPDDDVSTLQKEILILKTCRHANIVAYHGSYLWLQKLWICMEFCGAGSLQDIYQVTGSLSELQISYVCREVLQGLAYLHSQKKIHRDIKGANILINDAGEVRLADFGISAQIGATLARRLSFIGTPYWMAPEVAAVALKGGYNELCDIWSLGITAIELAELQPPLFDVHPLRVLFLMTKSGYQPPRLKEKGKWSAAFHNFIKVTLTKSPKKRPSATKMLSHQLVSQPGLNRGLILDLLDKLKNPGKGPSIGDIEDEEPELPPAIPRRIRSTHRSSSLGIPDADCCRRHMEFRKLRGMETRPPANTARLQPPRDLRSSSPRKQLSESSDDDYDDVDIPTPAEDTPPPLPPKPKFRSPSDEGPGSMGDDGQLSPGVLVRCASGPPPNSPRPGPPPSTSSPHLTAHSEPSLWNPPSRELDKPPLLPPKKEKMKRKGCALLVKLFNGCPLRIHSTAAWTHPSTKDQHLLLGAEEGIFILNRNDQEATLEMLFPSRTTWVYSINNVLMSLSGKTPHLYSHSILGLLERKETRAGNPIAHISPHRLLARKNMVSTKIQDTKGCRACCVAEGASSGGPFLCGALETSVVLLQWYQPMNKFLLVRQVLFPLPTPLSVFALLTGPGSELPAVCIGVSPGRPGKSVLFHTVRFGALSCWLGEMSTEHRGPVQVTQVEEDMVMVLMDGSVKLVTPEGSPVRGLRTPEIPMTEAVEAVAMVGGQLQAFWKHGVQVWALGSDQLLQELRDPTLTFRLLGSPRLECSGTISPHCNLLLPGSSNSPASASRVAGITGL

[4] = molecular target: cAMP-dependent protein kinase catalytic subunit gamma (Homo sapiens, UniProt P22612)
cAMP-dependent protein kinase catalytic subunit gamma, sequence (P22612 whole entry): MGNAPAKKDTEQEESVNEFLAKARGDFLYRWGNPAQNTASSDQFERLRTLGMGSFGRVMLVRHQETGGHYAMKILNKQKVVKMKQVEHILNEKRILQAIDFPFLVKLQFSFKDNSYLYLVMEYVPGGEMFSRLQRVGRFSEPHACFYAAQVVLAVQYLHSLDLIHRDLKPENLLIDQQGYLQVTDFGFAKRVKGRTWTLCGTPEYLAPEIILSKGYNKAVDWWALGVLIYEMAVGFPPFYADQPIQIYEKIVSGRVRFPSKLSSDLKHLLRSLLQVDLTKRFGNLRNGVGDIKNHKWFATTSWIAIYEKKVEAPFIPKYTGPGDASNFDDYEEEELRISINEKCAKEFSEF

Aurora kinase B, sequence (Q96GD4 whole entry): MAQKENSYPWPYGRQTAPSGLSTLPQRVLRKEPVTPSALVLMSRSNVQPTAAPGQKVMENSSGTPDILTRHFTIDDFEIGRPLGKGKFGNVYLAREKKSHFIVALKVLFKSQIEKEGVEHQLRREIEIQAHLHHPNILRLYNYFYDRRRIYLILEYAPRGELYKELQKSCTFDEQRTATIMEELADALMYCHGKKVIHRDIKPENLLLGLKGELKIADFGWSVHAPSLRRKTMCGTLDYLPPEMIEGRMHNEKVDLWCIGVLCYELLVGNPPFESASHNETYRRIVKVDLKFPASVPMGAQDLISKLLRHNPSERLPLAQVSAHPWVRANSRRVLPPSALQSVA

Compound	Kd (Aurora kinase B)	Kd [1]	Kd [2]	Kd [3]	Kd [4]	pKd [3]
COc1cc2nccc(Oc3ccc(NC(=O)NC4CC4)c(Cl)c3)c2cc1C(N)=O [LENVATINIB]	1.78 µM (active)	4.11 µM (active)	> 30 µM (inactive)	> 30 µM (inactive)	> 30 µM (inactive)	
Cc1ccc(-n2nc(C(C)(C)C)cc2NC(=O)NCc2cc(F)ccc2Oc2ccc3c(cnn3CCO)c2)cc1 [PEXMETINIB]	> 30 µM (inactive)	0.681 µM (active)	> 30 µM (inactive)	> 30 µM (inactive)	> 30 µM (inactive)	
CC(=O)Nc1cccc(-n2c(=O)n(C3CC3)c(=O)c3c(Nc4ccc(I)cc4F)n(C)c(=O)c(C)c32)c1 [TRAMETINIB]	> 30 µM (inactive)	> 30 µM (inactive)	> 30 µM (inactive)	> 30 µM (inactive)	> 30 µM (inactive)	
COC(=O)N[C@@H](C)CNc1nccc(-c2cn(C(C)C)nc2-c2cc(Cl)cc(NS(C)(=O)=O)c2F)n1 [ENCORAFENIB]	> 30 µM (inactive)	> 30 µM (inactive)	> 30 µM (inactive)	> 30 µM (inactive)	> 30 µM (inactive)	
CCn1c(=O)c(-c2cc[nH]n2)cc2c(C)nc(N)nc21 [VOXTALISIB]	> 30 µM (inactive)	> 30 µM (inactive)	> 30 µM (inactive)	> 30 µM (inactive)	> 30 µM (inactive)	
Cc1ccc(NC(=O)c2ccc(CN3CC[C@H](N(C)C)C3)c(C(F)(F)F)c2)cc1Nc1nccc(-c2cncnc2)n1 [BAFETINIB]	> 30 µM (inactive)	0.015 µM (active)	> 30 µM (inactive)	> 30 µM (inactive)	> 30 µM (inactive)	
N[C@@H]1CCCN(c2c(/C=C3\SC(=O)NC3=O)cccc2-c2ccccc2)C1	> 30 µM (inactive)	> 30 µM (inactive)	> 30 µM (inactive)	> 30 µM (inactive)	> 30 µM (inactive)	
CNC(=O)CN1CCC(Oc2cc3c(Nc4cccc(Cl)c4F)ncnc3cc2OC)CC1 [SAPITINIB]	> 30 µM (inactive)	> 30 µM (inactive)	> 30 µM (inactive)	> 30 µM (inactive)	> 30 µM (inactive)	
CNC(=O)c1cc(Oc2ccc(NC(=O)Nc3ccc(Cl)c(C(F)(F)F)c3)c(F)c2)ccn1 [REGORAFENIB]	> 30 µM (inactive)	0.739 µM (active)	> 30 µM (inactive)	> 30 µM (inactive)	> 30 µM (inactive)	
CN1CC[C@@H](c2c(O)cc(O)c3c(=O)cc(-c4ccccc4Cl)oc23)[C@@H]1CO	> 30 µM (inactive)	> 30 µM (inactive)	> 30 µM (inactive)	> 30 µM (inactive)	> 30 µM (inactive)	
COc1cc(OC)c(/C=C/S(=O)(=O)Cc2ccc(OC)c(NCC(=O)O)c2)c(OC)c1 [RIGOSERTIB]	> 30 µM (inactive)	> 30 µM (inactive)	> 30 µM (inactive)	> 30 µM (inactive)	> 30 µM (inactive)	
C1=C/COCc2cc(ccc2OCCN2CCCC2)Nc2nccc(n2)-c2cccc(c2)COC/1 [PACRITINIB]	0.641 µM (active)	> 30 µM (inactive)	> 30 µM (inactive)		> 30 µM (inactive)	6.80

Next, values leading:

Kd (Aurora kinase B)	Kd [1]	Kd [2]	Kd [3]	Kd [4]	pKd [3]	Compound
> 30 µM (inactive)	> 30 µM (inactive)	> 30 µM (inactive)	> 30 µM (inactive)	> 30 µM (inactive)		O=C(Nc1ccc(-c2ccnc(Nc3ccc(N4CCOCC4)cc3)n2)cc1)C1CCCN1 (stereo not given) [XL-019]
> 30 µM (inactive)	> 30 µM (inactive)	> 30 µM (inactive)	> 30 µM (inactive)	> 30 µM (inactive)		COc1ccc(-c2ccc3c(N4CCOC[C@@H]4C)nc(N4CCOC[C@@H]4C)nc3n2)cc1CO [AZD-8055]
> 30 µM (inactive)	> 30 µM (inactive)	> 30 µM (inactive)	> 30 µM (inactive)	> 30 µM (inactive)		Cn1cc(-c2ccc(F)c(C(F)(F)F)c2)nc1C1CCN(c2ncnc3[nH]ncc23)CC1 [LY-2584702]
> 30 µM (inactive)	0.495 µM (active)	> 30 µM (inactive)	> 30 µM (inactive)	> 30 µM (inactive)		CCN1CCN(Cc2ccc(-c3cc4c(N[C@H](C)c5ccccc5)ncnc4[nH]3)cc2)CC1 [AEE-788]
